In test [1] the test system is SU-DHL-10 cells. The experiment in a line: Cell viability assay (CellTiter-Glo) in SU-DHL-10 cells. It is filed as cell-based, human. Particulars: SU-DHL-10, single agent, 5 days. As to the method: (§1) Experiments were performed in cultured human cells to assess the efficacy of combined EZH2 inhibitor and immunomodulatory drug (e.g., an IMiD) treatment using an EZH2-mutant DLBCL cell line, SU-DHL-10, and an EZH2-wild type line, OCI-LY7. Cells were purchased from Nanjing Cobioer Biotechnology. SU-DHL-10 and OCI-LY7 cells were cultured at 37° C. with 5% CO2 in RPMI 1640 Medium supplemented with 10% fetal bovine serum. Cells were authenticated using the short tandem repeat (STR) assays. Mycoplasma test results were negative.
(§2) The cultured cells were seeded at a density of 5000 cells per well in 96-well assay plates and treated with test compounds at 10 μM followed by a 11-point 3-fold serial dilution or an 8-point 10-fold serial dilution. Cell viability was determined after 5 days, using the CellTiter-Glo assay kit (Promega) according to the manufacturer's instructions. The dose-response curves were determined and IC50 values were calculated using the GraphPad Prism software following a nonlinear regression (least squares fit) method. Each data point in the figure represents the mean values of at least two technical replicates ± standard deviation.
(§3) Cells were treated with EZH2 inhibitors in the presence of IMiDs at concentrations sufficient to induce degradation of IKZF1 and IKZF3 but not enough to kill cells. CC-122 and CC-220 were tested at a concentration of 1 μM; CC-92480 and CFT7455 were tested at a concentration of 1 nM; and CC-99282 was tested at a concentration of 10 nM.
(In ATP-based viability assays light output follows the ATP content of the culture.)

Test [2] has as its system SU-DHL-10 cells. The description is as above. The format is cell-based, human.
Another test concerns OCI-LY7 cells. Put plainly: Cell viability assay (CellTiter-Glo) in OCI-LY7 cells. The format is cell-based, human. Particulars: for cell viability, response of the cells to the single agent: OCI-LY7, single agent, 5 days. As to the method:
as §1, §2, §3

A further test deals with IKZF1 or IKZF3. Particulars: more potent than older IMiDs; stated as 'may be'; cited from earlier work.
[3] abbreviates: SU-DHL-10, in the presence of 100 nM CPI-0209.
[4] abbreviates: SU-DHL-10, in the presence of 100 nM SHR2554.
Where [5] appears, read: OCI-LY7, in the presence of 100 nM CPI-0209.
[6] abbreviates: OCI-LY7, in the presence of 100 nM SHR2554.

Molecules are shown by their SMILES.

As for `O=C1CC[C@H](N2C(=O)c3cccc4c(Cc5ccc(CN6CCOCC6)cc5)ccc2c34)C(=O)N1` [CFT7455, (S)-3-(6-(4-(morpholinomethyl)benzyl)-2-oxobenzo[cd]indol-1(2H)-yl)piperidine-2,6-dione], the “cell viability, response of the cells to the single agent” value with SU-DHL-10 cells [1] and in the test with OCI-LY7 cells was “moderately responsive” in each case. In addition, the “cell viability (sensitivity of the cells to the compound in combination)” value in the test on SU-DHL-10 cells [2] (setting [3]), with SU-DHL-10 cells [2] (setting [4]), with OCI-LY7 cells (setting [5]) and in the test on OCI-LY7 cells (setting [6]) was “lowered cell viability more than treatment with CFT7455 alone” each time.

`O=C1CC[C@H](N2C(=O)c3cccc(NCc4ccc(CN5CC(N6CCOCC6)C5)cc4F)c3C2=O)C(=O)N1` [CC-99282, (S)-2-(2,6-dioxopiperidin-3-yl)-4-((2-fluoro-4-((3-morpholinoazetidin-1-yl)methyl)benzyl)amino)isoindoline-1,3-dione]: the “cell viability, response of the cells to the single agent” value in the test on SU-DHL-10 cells [1] and in the test with OCI-LY7 cells was “moderately responsive” each time. Besides, the “cell viability (sensitivity of the cells to the compound in combination)” value in the test on SU-DHL-10 cells [2] (setting [3]), in the test with SU-DHL-10 cells [2] (setting [4]), with OCI-LY7 cells (setting [5]) and in the test with OCI-LY7 cells (setting [6]) was “lowered cell viability more than treatment with CC-99282 alone” each time.

Regarding `N#Cc1ccc(N2CCN(Cc3ccc(COc4cccc5c4CN([C@H]4CCC(=O)NC4=O)C5=O)cc3)CC2)c(F)c1` [CC-92480, mezigdomide], in the test with IKZF1 or IKZF3, the “potency with regard to IKZF1 or IKZF3 degradation relative to older IMiDs” value is given as 1000 fold.

Source of the values: patent publication US20240335452A1, “COMPOSITIONS AND METHODS OF COMBINATION THERAPY FOR TARGETING LYMPHOMA” (Cullgen (Shanghai), Inc., priority 2021, published 2024).
